Test results published in the SangsterLogP compilation.

Tests used:
[1] = method code SF-RC, from DOI: 10.1021/es00096a007
[2] = method code SF-AS, from DOI: 10.1021/jm00099a010, PMID: 1433194; settings: pH 7.4
[3] = method code SF-AS, from DOI: 10.1248/cpb.39.458, PMID: 1829027; settings: pH 7.0
[4] = method code SF-GLC, from DOI: 10.1556/jpc.23.2010.3.6
[5] = method code SF-AS, from PMID: 3449083
[6] = method code SF-AS, from DOI: 10.1016/0378-5173(92)90099-n
[7] = not given; remark: listed apart in the source
[8] = not given; remark: listed apart in the source
[9] = method code SF-AS, from DOI: 10.1016/s0928-0987(01)00170-1, PMID: 11500262; settings: pH 12.5
[10] = method code SF-RC, from DOI: 10.1016/s0969-8051(99)00046-3, PMID: 10628564; settings: pH 7.4
[11] = not given; remark: listed apart in the source
[12] = not given; remark: listed apart in the source
[13] = method code SF-AS, from DOI: 10.1021/jm00170a024, PMID: 2374146
[14] = not given; remark: listed apart in the source
[15] = not given; remark: listed apart in the source
[16] = not given; remark: listed apart in the source
[17] = method code SF, from DOI: 10.1007/978-94-011-1472-1_81
[18] = method code SF-RC, from DOI: 10.1016/j.nucmedbio.2012.01.004, PMID: 22336372; settings: pH 7.4
[19] = not given; remark: listed apart in the source
[20] = not given; remark: listed apart in the source
[21] = not given; remark: listed apart in the source
[22] = method code SF-RC, from DOI: 10.1021/jm070025+, PMID: 17411026; settings: pH 7.4
[23] = method code SF-GR, from DOI: 10.1021/jm00199a032, PMID: 619145
[24] = not given; remark: listed apart in the source
[25] = method code SF-RC, from DOI: 10.1016/j.bmc.2005.04.014, PMID: 15911305; settings: pH 7.4
[26] = not given; remark: listed apart in the source
[27] = method code SF-RC, from DOI: 10.1002/jlcr.1932; settings: pH 7.4
[28] = method code SF-AS, from DOI: 10.1016/s0021-9673(00)91570-x; settings: pH 3.4
[29] = method code SF-AS, from DOI: 10.1021/jm00254a028, PMID: 4845386
[30] = method code SF-LC/MS, from DOI: 10.1021/jm4008714, PMID: 23919803; settings: pH 7.4
[31] = method code SF-AS, from Zsuzsa, H.; Nora, K. (1979). Study on the partition coefficient of acetanilides. Nehezvegyp. Kut. Intez. Kozl., 8, 139-146.
[32] = method code SF-AS, from PMID: 872227; settings: pH 7.2
[33] = method code SF-AS, from DOI: 10.1213/00000539-199008000-00008, PMID: 2375517
[34] = method code SF-AS, from DOI: 10.1007/bf02273190
[35] = method code SF-HPLC, from Hairsine, P. (1997). Direct measurement of partition coefficient by shake flask technique and gradient elution HPLC. Lab. Practice, 38(11)73-75.
[36] = not given; remark: listed apart in the source
[37] = not given; remark: listed apart in the source
[38] = method code SF-AS, from PMID: 10944786; settings: pH 7.0
[39] = not given; remark: listed apart in the source
[40] = pH 7.4
[41] = not given; remark: listed apart in the source
[42] = method code SF, from DOI: 10.1021/jm049495j.s001, PMID: 15771458; settings: pH 12.0
[43] = not given; remark: listed apart in the source
[44] = not given; remark: listed apart in the source
[45] = from Ammermann, E., Loecher, F., Lorenz, G., Janssen, B., Karbach, S., & Meyer, N. (1990). BAS 480 F - a new broad spectrum fungicide. In Brighton Crop Protection Conference, Pests and Diseases - 1990 …; settings: pH 7.0
[46] = method code SF-RC, from PMID: 14530489; settings: pH 7.4
[47] = not given; remark: listed apart in the source

Work on `Nc1cc2c3ccccc3ccc2c2ccccc12` yielded a logP [1] of 4.98.
`CN1CCN(Cc2ccc(C(=O)c3csc(S(N)(=O)=O)c3)cc2)CC1` showed a logD [2] of 0.37.
For `CCCCC(CC)COC(=O)c1ccc(N(C)C)cc1` (stereo not drawn), the logP was 6.6.
`CCCC(=O)OC[C@H]1O[C@@H](n2cc(F)c(=O)[nH]c2=O)C[C@@H]1OC(=O)CCC` gave a logD [3] of 1.9.
`CCCCCCCCCCCCCCCCO` showed a logP [4] of 7.
`CN1C=CCC(C(=O)OC2CCC(NC(=O)N(CCCl)N=O)CC2)=C1` (stereo not drawn) gave a logP [5] of 2.53.
Molecule `CCn1cc(C(=O)O)c(=O)c2cc(F)c(N3CCN(C)CC3)c(F)c21` has a logP [6] of 0.3.
In the case of `Clc1ccc(COC(Cn2ccnc2)c2ccc(Cl)cc2Cl)c(Cl)c1` (stereo not drawn), the logP [7] is reported as 5.81.
With `c1ccc2c(c1)Cc1c-2ccc2ccccc12` the logP [8] was 5.32.
Molecule `CN(C)CCC(c1ccccc1)c1ccccc1` has a logD [9] of 5.4.
Molecule `CN1CCN(C(=O)OC2c3nccnc3C(=O)N2c2ccc(I)cn2)CC1` (stereo not drawn) has a logD [10] of 1.6.
`O=C1/C(=C/c2cccc(Cl)c2)CCCc2ccccc21` showed a logP [11] of 5.22.
Molecule `CC(Oc1ccccc1)C(=O)N[C@@H]1C(=O)N2[C@@H]1SC(C)(C)[C@@H]2C(=O)O` (stereo partly drawn) has a logP [12] of 2.19.
For `CCOP(=O)(Cc1ccc(-c2nc3ccccc3s2)cc1)OCC`, the logP [13] was 3.5.
`c1ccc(C2=NOC3COC(c4ccccc4)OCC23)cc1` (stereo not drawn) showed a logP [14] of 3.42.
`CCCCCCCCCCCCCCOC(=O)C(C)O` (stereo not drawn) showed a logP [15] of 6.08.
Molecule `Cc1cc2c(s1)Nc1ccccc1N=C2N1CCN(C)CC1` has a logP [16] of 3.
With `Cc1cccc2c1Sc1ccccc1C2NC(=O)CN(C)C` (stereo not drawn) the logP [17] was 3.24.
Molecule `C#CCN(CCF)c1ccc(S(=O)c2ccc([N+](=O)[O-])cc2)cc1` (stereo not drawn) has a logD [18] of 2.6.
`O=C(O)c1cc(/N=N/c2ccc(S(=O)(=O)Nc3ccccn3)cc2)ccc1O` gave a logP [19] of -0.13.
`CCCCCCNC(=O)CNC(=O)OCc1ccccc1` showed a logP [20] of 3.7.
`CC1C=COC1C(=O)Nc1cccc(-c2nc3ncccc3o2)c1` (stereo not drawn) showed a logP [21] of 2.9.
Work on `CN(C)c1ccc(/C=C/c2cnc(OCCO)c(I)c2)cc1` yielded a logD [22] of 2.64.
With `S=P(NN=Cc1ccccn1)(NN=Cc1ccccn1)Oc1ccccc1` the logP [23] was 1.62.
`CCCCCCCC(=O)N[C@@H]1C(=O)N2[C@@H]1SC(C)(C)[C@@H]2C(=O)O` showed a logP [24] of 3.32.
With `Nc1nc(OCc2cccc(I)c2)c2ncn(C3CC(O)C(CO)O3)c2n1` (stereo not drawn) the logD [25] was 1.4.
With `CCCN(CCC)P(=O)(OC(C)CC)c1ccccc1` (stereo not drawn) the logP [26] was 4.13.
Molecule `O=C(OCC1=CC(=O)c2ccccc2C1=O)c1ccc(F)cc1` has a logD [27] of 2.7.
For `COc1cc(CC(=O)O)ccc1OCC1CCCCC1`, the logD [28] was 3.35.
In the case of `NC(=O)OC1c2ccccc2C2CCCCC2C1OC(N)=O` (stereo not drawn), the logP [29] is reported as 2.17.
For `Cn1c(=O)nc(-c2ccccc2)c2oc3ccccc3c21`, the logD [30] was 2.8.
With `CC(Cl)C(=O)N(CC(=O)Nc1ccccc1)c1ccccc1` (stereo not drawn) the logP [31] was 3.02.
`CCCOc1ccc(NC(=O)OCCN2CCOCC2)c(C)c1` showed a logD [32] of 2.21.
`CCCN1CCCC[C@H]1C(=O)Nc1c(C)cccc1C` gave a logP [33] of 2.89.
For `CCCCCCC(=O)N(C)c1ccc(S(=O)(=O)N(C)C)cc1`, the logP [34] was 2.61.
With `O=C(CCNNC(=O)c1ccncc1)NCc1ccccc1` the logP [35] was 0.83.
For `COC(=O)C1C2CC3CCC1N3CC2=Cc1ccc(I)c(Cl)c1` (stereo not drawn), the logP [36] was 4.25.
With `COc1ccc(Sc2ccc(I)cc2N)c(CN(C)C)c1` the logP [37] was 3.34.
For `CCCCOc1cccc(NC(=O)OCN2CCCCC2)c1`, the logD [38] was 2.97.
`COc1c(OC)c(OC(C)=O)c2cc(NC(C)=O)ccc2c1OC(C)=O` gave a logP [39] of 2.
Molecule `CCCCSCS(=O)CC(CO)NC(=O)C=Cc1c(C)[nH]c(=O)[nH]c1=O` (stereo not drawn) has a logD [40] of 0.14.
With `COC1=CC(=NO)CC(C)C12Oc1c(Cl)c(OC)cc(OC)c1C2=O` (stereo not drawn) the logP [41] was 2.31.
With `c1ccc2c(c1)CCn1ccnc1C21CCNCC1` the logD [42] was 1.18.
In the case of `CN1CC[C@]23c4c5ccc(O)c4O[C@H]2C(=O)CC[C@@]3(O)[C@H]1C5`, the logP [43] is reported as 0.67.
Work on `CN1CCN2c3ccccc3Cc3ccccc3C2C1` (stereo not drawn) yielded a logP [44] of 4.
For `Fc1ccc([C@]2(Cn3cncn3)O[C@H]2c2ccccc2Cl)cc1` (stereo in doubt), the logD [45] was 3.44.
Work on `CS(=O)(=O)c1ccc(-c2ccsc2-c2ccc(F)cc2)cc1` yielded a logD [46] of 3.72.
For `Oc1ccc(C23CC4CC(CC(C4)C2)C3)cc1`, the logP [47] was 5.46.
